Data on seven molecules can be found in article PMC12311110 (Nature Communications, 2025).

Where two headings read alike, the source gives them in different places. No end group written: not given here.

For experiment [1], the system named is colocalization with VPS35 or SNX1 in HeLa cells. The experiment is described as follows: Immunofluorescence colocalization analysis (Manders/Pearson coefficients). It is filed as cell-based, human. Particulars: mean of the 3 experiment averages (n = 3). The method, then: HeLa cells were seeded onto 13 mm coverslips. Cells were fixed in 4% (v/v) paraformaldehyde (PFA) (Pierce, 28906) in PBS for 20 min and permeabilised in 0.1% (v/v) Triton X-100 in PBS (Sigma-Aldrich), or in 0.1% (w/v) saponin (sigma-Aldrich) in PBS when labelling LAMP1 compartments, for 5 min followed by blocking with 2% (w/v) BSA (Sigma, 05482) in PBS for 30 min. Coverslips were stained with primary antibodies for 1 hr followed by secondary antibodies for 30 min, then mounted onto glass microscope slides with Fluoromount-G (Invitrogen, 00-4958-02).
Confocal microscope images were taken on a Leica SP5-II confocal laser scanning microscope attached to a Leica DMI 6000 inverted epifluorescence microscope or a Leica SP8 confocal laser scanning microscope attached to a Leica DM l8 inverted epifluorescence microscope (Leica Microsystems), with a 63x UV oil immersion lens, numerical aperture 1.4 (Leica Microsystems, 506192). For the Leica SP8 microscope, ‘lightning’ adaptive image restoration was used to generate deconvolved representative images. Colocalization analysis was performed using Volocity 6.3 software (PerkinElmer) or JACOP plugin from ImageJ-FIJI software. Spinning disk high-resolution images were acquired on an IXplore SpinSR system (Olympus) consisting of an IX83 microscope frame with a CO2 and temperature chamber (Olympus), SoRa W1 twin cam spinning disk unit (Yokogawa) and two back-thinned Fusion BT sCMOS cameras (Hamamatsu). A 488 nm or 561 nm laser provided excitation for the green and red channels, respectively. The SoRa disk with an additional 3.2x magnification changer was used for imaging with excitation light focused to the sample using a 60x/1.4NA oil immersion lens. The system operated in simultaneous twin-cam mode, and the desired fluorescence was selected through the use of either a 525/50 nm or 617/73 nm bandpass filter for the green or red channel, respectively.

The target in experiment [2] is T1, hRetromer (Homo sapiens, UniProt O75436+Q96QK1+Q9UBQ0).
T1 construct: GST (pGEX4T-2, thrombin site plus linker) (N, cleaved yes); made in house; host or cells: E. coli BL21 (DE3)
The experiment is described as follows: Isothermal titration calorimetry (ITC) of binding to Retromer. As to conditions: 25 °C; for Kd / -TΔS / ΔG / ΔH: ITC, mean of triplicate titrations. How it is done: All the bacteria constructs were expressed in BL21 (DE3) cells using the autoinduction method. In brief, cultures grown in complex medium were incubated at 37 °C for 4 h, followed by overnight growth at 20 °C before harvesting for purification. […] In all cases, the soluble fractions clarified by centrifugation were loaded onto pre-equilibrated glutathione sepharose (GE healthcare) for initial purification. For Retromer, an additional Talon® resin purification step was performed to ensure the correct stoichiometry. GST-tag removal was carried out co-column overnight by adding thrombin for Human Retromer and PreScission protease for TBC1D13. The GST-tag removed fraction was further purified by size-exclusion chromatography (SEC) using a Superdex 200 (16/600) column (GE Healthcare) equilibrated with buffer containing 50 mM Tris-HCl pH 7.5, 200 mM NaCl, 2 mM β-ME.
The effect of cyclic peptide was assessed by pre-mixing 140 µM RT-D1 into 14 µM Retromer before titrating with 1 mM of native DENND4C1189-1206 peptide. For the binding experiment between Retromer and TBC1D13, 530 µM of TBC1D13 was titrated into 14 µM Retromer. The effect of the cyclic peptide was tested using the same concentration of RT-D1 as described above. All ITC experiments consisted of an initial 0.4 μl (not used in data processing), followed by 12 serial injections of 3.22 μl each with 180 sec intervals. The resulting titration data were integrated with the Malvern software package by fitting and normalised data to a single-site binding model. This yielded the thermodynamic parameters for all binding experiments, including the dissociation constant (Kd), enthalpy (∆H), Gibbs free energy (∆G) and -T∆S. The stoichiometry (N) was refined initially, and if the value was close to 1, then it was set to exactly 1.0 for calculation. The data presented are the mean of triplicate titrations for each experiment.

Experiment [3] deals with HeLa lines expressing the BioID1 chimeric versions. The experiment is described as follows: GLUT1 and α5β1-integrin trafficking (lysosomal missorting/colocalization with LAMP1) after biotin incubation. It counts as cell-based, human. As to conditions: 24 h incubation with 50 µM biotin; HeLa lines expressing the BioID1 chimeras; confocal imaging. The method, then:
To explore the robustness of the proximity labelling, we performed an initial biased identification of the biotinylated proteins using western analysis of target proteins. Although 12 h incubation with biotin was enough to label some interactors, we chose to perform all experiments using 24 h incubation to maximise the detection of weak and low abundance proximity proteins, and the potential to identify cargo proteins transiting through the sub-domains (Supplementary Fig. 2H). Importantly, we tested whether the actual biotin-labelling process had any detectable effect on Retromer and Retriever-dependent cargo sorting.
HeLa cells were seeded onto 13 mm coverslips. […]
Confocal microscope images were taken on a Leica SP5-II confocal laser scanning microscope attached to a Leica DMI 6000 inverted epifluorescence microscope or a Leica SP8 confocal laser scanning microscope attached to a Leica DM l8 inverted epifluorescence microscope (Leica Microsystems), with a 63x UV oil immersion lens, numerical aperture 1.4 (Leica Microsystems, 506192). […] The system operated in simultaneous twin-cam mode, and the desired fluorescence was selected through the use of either a 525/50 nm or 617/73 nm bandpass filter for the green or red channel, respectively. […]

Where [4] appears, read: 1 mM DENND4C1189-1206 peptide (native or L1204A) titrated into 14 µM Retromer.
Setting [5] is: 140 µM RT-D1 pre-mixed into 14 µM Retromer, then titrated with 1 mM native DENND4C1189-1206 peptide.

GFP-DENND4C WT: in experiment [1], the GFP-DENND4C dots/section was 55.5, the “M1 GFP-DENND4C/VPS35 (Manders coefficient)” value came to 0.4133 and the “M2 GFP-DENND4C/VPS35 (Manders coefficient)” value is on record as 0.28.

Regarding GFP-DENND4C L1201A, in experiment [1], the GFP-DENND4C dots/section was 11.1, the “M1 GFP-DENND4C/VPS35 (Manders coefficient)” value turned out to be 0.06333 and the “M2 GFP-DENND4C/VPS35 (Manders coefficient)” value is reported as 0.06433.

Regarding AKVVQREDVETGLDPLSL [hDENND4C1189-1206], the Kd in experiment [2] (Microcal PEAQ-ITC, 1 mM DENND4C1189-1206 peptide (native or L1204A) titrated into 14 µM Retromer, single-site binding model, read-out: Kd) was determined as 15.4 ± 0.85 µM.

`O=C(O)CCCC[C@@H]1SC[C@@H]2NC(=O)N[C@@H]21` [biotin]: the “Effect of biotin labelling on trafficking of GLUT1 or α5β1-integrin” value in experiment [3] is on record as “did not detect significant changes”.

Regarding “AKVVQREDVETGLDPASL [hDENND4C1189-1206 L1204A]”, in experiment [2] (setting [4]), the “-TΔS” value was “No binding detected”, the ΔG result was “No binding detected” and the ΔH entry was “No binding detected”. Besides, the Kd result in experiment [2] (Microcal PEAQ-ITC, 1 mM DENND4C1189-1206 peptide (native or L1204A) titrated into 14 µM Retromer, single-site binding model) was “No binding detected”.

On to “Ac-yIIDTPLGVFLSSLKRC-NH2 [RT-D1, reference compound]”, for which the “Effect of competing RT-D1 on binding of the DENND4C PL-containing peptide” value in experiment [2] (ITC competition, 140 µM RT-D1 pre-mixed into 14 µM Retromer, 1 mM DENND4C1189-1206 peptide titrated) is given as “blocked”.

With “hDENND4C1189-1206 + RT-D1: native DENND4C1189-1206 peptide titrated into Retromer pre-mixed with 140 µM RT-D1 (AKVVQREDVETGLDPLSL; premixed with Retromer and RT-D1; UniProt Q5VZ89 1189-1206, looked up, fragment)”, in experiment [2] (setting [5]), the “-TΔS” value was “No binding detected”, the Kd result is given as “No binding detected”, the ΔG result is reported as “No binding detected” and the ΔH entry is “No binding detected”.

What is called Kd is a measure of binding affinity in units of concentration.
